In US10941157B2, “Pesticidal compositions and uses thereof” (Gilead Apollo, LLC, priority 2015, dated 2021):
In brackets after ≈: the same amount, converted by molar mass. Read-outs that look alike come from different tables or passages of the source.

Columns and labels:
Sphaerotheca fuliginea = assay: Foliar protection for cucumber powdery mildew control; assay type: in vivo; conditions: foliar spray on Cucumis sativus cv. Straight Eight, inoculated 24 hours after treatment, evaluated 7 days later
Description: Plants (Cucumis sativus cv. Straight Eight) were grown for 10 days in 2.5-inch square pots containing Metromix 200 medium amended with fertilizer. For propagation, plants were maintained in a growth chamber at conditions of 23 to 27° C., 16 hour light cycle, ambient humidity, and with sub-irrigation as needed. After inoculation with the pathogen of Sphaerotheca fuliginea, plants were kept at conditions of 23 to 27° C., 16 hour light cycle, 60% relative humidity, and with sub-irrigation as needed to facilitate infection and disease development. […] An atomizer was used for applying the solution onto both sides of the leaves until thoroughly wetted. […] At 24 hours after treatment, the plants were moved to a cooler chamber and inoculated by shaking well-colonized, untreated stock plants above the treated plants. This allowed producing a settling cloud of spores and resulting in uniform infection. Inoculated plants were kept near other sporulating stock plants to allow for infection of newly emerging leaves. Efficacy was evaluated in 7 days later by examining leaves for colonization and growth of mildew. Table 5 lists the results of cucumber powdery mildew control at a compound concentration of 10 ppm or lower.

[1] = tested on: Phytophthora capsici (Pc); assay: In vitro pathogen growth inhibition assay, Pc; assay type: cell-based; conditions: 48 h
Outline: (§1)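 Spores of Dm, Fv and Pc were diluted in 17% V8 liquid medium; Rs used 1.5 mm mycelial plugs in ¼ PDB. Compounds from 2.5 mg/ml DMSO stocks were combined with inoculum, growth was read by OD600 at 24 and 48 h with blank subtraction, and the reported value is the concentration giving ≥90% inhibition.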

Fusarium graminearum = assay type: in vivo; conditions: spray on flowering Triticum aestivum cv. Samson, inoculated 24 hours after treatment, evaluated 14 days later
[2] = tested on: Fusarium virguliforme (Fv); assay: In vitro pathogen growth inhibition assay, Fv; assay type: cell-based
Outline: as §1

Diplodia maydis (Dm) = assay: In vitro pathogen growth inhibition assay, Dm; assay type: cell-based; conditions: Stenocarpella maydis, 48 h
Outline: as §1

Rhizoctonia solani (Rs) = assay: In vitro pathogen growth inhibition assay, Rs (mycelial plugs); assay type: cell-based; conditions: mycelial plugs; for IC90: Rhizoctonia solani, 48 h
Outline: as §1

[3] = tested on: Mycosphaerella graminicola (synthetic Septoria tritici); assay: Foliar protection test for wheat septoria leaf blotch control; assay type: in vivo; conditions: foliar spray on Triticum aestivum cv. WinterHawk, inoculated 1 hour after treatment, evaluated 16 days later
Botrtyis cinerea (Bc) = assay: In vitro pathogen growth inhibition assay, Bc; assay type: cell-based; conditions: 48 h
Outline: (§2)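 Spores in 17% V8 liquid medium, or 1.5 mm Rs mycelial plugs in ¼ PDB, incubated with compound; final concentration checked by OD600 for precipitation. OD readings at 24 and 48 h, blank-subtracted, plus visual ratings; value is concentration giving ≥90% growth inhibition.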

Septoria tritici (St) = assay: In vitro pathogen growth inhibition assay, St; assay type: cell-based; conditions: Zymoseptoria tritici, 48 h
Outline: as §2

Phakopsora pachyrhizi = assay: Foliar protection test for Asian soybean rust control; assay type: in vivo; conditions: foliar application to soybean (Glycine max AG4832), percent disease area evaluated 14 days later
[4] = tested on: Collectotrichum graminicola (Cg); assay: In vitro pathogen growth inhibition assay, Cg; assay type: cell-based; conditions: 48 h
Outline: as §2

Puccinia triticina = assay: Foliar protection test for wheat leaf rust control; assay type: in vivo; conditions: foliar application to wheat (Triticum aestivum cv. Winterhawk), evaluated 10 days later
[5] = tested on: Fusarium moniliforme (Fm); assay: In vitro pathogen growth inhibition assay, Fm; assay type: cell-based; conditions: Fusarium verticillioides
Outline: as §2

[6] = tested on: Blumeria graminis f. sp. hordei; assay: Foliar protection test for barley powdery mildew control; assay type: in vivo; conditions: foliar spray on Hordeum vulgare cv. Perry, inoculated 24 hours after treatment, evaluated 7 days later
Description: Plants (Hordeum vulgare cv. Perry) were grown for 6 days in 2-inch square pots containing Metromix 200 medium amended with fertilizer. […] After inoculation with the pathogen of Blumeria graminis f. sp. hordei, plants were kept at conditions of 20 to 22° C., 70% relative humidity, and 200 uM of light to facilitate infection and disease development. […] An atomizer was used for applying the solution onto both sides of the leaves until thoroughly wetted. […] At 24 hours after treatment, the plants were moved to a cooler chamber and inoculated by shaking well-colonized, untreated stock plants above the treated plants. This allowed producing a settling cloud of spores and resulting in uniform infection. Efficacy was evaluated in 7 days later by examining leaves for colonization and growth of mildew. Table 4 lists the results of barley powdery mildew control at a compound concentration of 10 ppm or lower.

[7] = ≥90% inhibition, 48 hours vs 2% DMSO control, read-out: Compound Concentration (ppm) sufficient for ≥90% inhibition of growth, Pc
[8] = ≥90% inhibition, 48 hours vs 2% DMSO control, read-out: Compound Concentration (ppm) sufficient for ≥90% inhibition of growth, Fv
[9] = ≥90% inhibition, 48 hours vs 2% DMSO control, read-out: Compound Concentration (ppm) sufficient for ≥90% inhibition of growth, Dm
[10] = ≥90% inhibition, 48 hours vs 2% DMSO control, read-out: Compound Concentration (ppm) sufficient for ≥90% inhibition of growth, Rs
[11] = ≥90% inhibition, 48 hours vs 2% DMSO control, read-out: Compound Concentration (ppm) sufficient for ≥90% inhibition of growth, Bc
[12] = ≥90% inhibition, 48 hours vs 2% DMSO control, read-out: Compound Concentration (ppm) sufficient for ≥90% inhibition of growth, St
[13] = ≥90% inhibition, 48 hours vs 2% DMSO control, read-out: Compound Concentration (ppm) sufficient for ≥90% inhibition of growth, Cg
[14] = ≥90% inhibition, 48 hours vs 2% DMSO control, read-out: Compound Concentration (ppm) sufficient for ≥90% inhibition of growth, Fm
[15] = ≥90% growth inhibition, 48 hours, vs 2% DMSO control, read-out: Compound Concentration (ppm) sufficient for ≥90% inhibition of St
[16] = ≥90% growth inhibition, 48 hours, vs 2% DMSO control, read-out: Compound Concentration (ppm) sufficient for ≥90% inhibition of Fm

| Structure (SMILES) | Cucumber Powdery Mildew Control at a compound concentration of 10 ppm or lower (Sphaerotheca fuliginea) | IC90 [1, 7] | Wheat Fusarium Head Blight Control at a compound concentration of 25 ppm or lower (Fusarium graminearum) | IC90 [2, 8] | IC90 (Diplodia maydis (Dm); [9]) | IC90 (Rhizoctonia solani (Rs); [10]) | Septoria Leaf Blotch Control at a compound concentration of 25 ppm or lower [3] | IC90 (Botrtyis cinerea (Bc); [11]) | IC90 (Septoria tritici (St); [12]) | Asian Soybean Rust Control at a compound concentration of 25 ppm or lower (Phakopsora pachyrhizi) | IC90 [4, 13] | Wheat Leaf Rust Control at a compound concentration of 10 ppm or lower (Puccinia triticina) | IC90 [5, 14] | Barley Powdery Mildew Control at a compound concentration of 10 ppm or lower [6] | IC90 (Septoria tritici (St); [15]) | IC90 [5, 16] | also measured |
| --- | --- | --- | --- | --- | --- | --- | --- | --- | --- | --- | --- | --- | --- | --- | --- | --- | --- |
| COc1ccc(F)cc1[C@H](Cn1c(=O)n(C(C)(C)C(=O)NC(C)C)c(=O)c2c(C)c(-n3nccn3)sc21)OC1CCOCC1 [Compound I-030, (R)-2-(1-(2-(5-fluoro-2-methoxyphenyl)-2-((tetrahydro-2H-pyran-4-yl)oxy)ethyl)-5-methyl-2,4-dioxo-6-(2H-1,2,3-triazol-2-yl)-1,4-dihydrothieno[2,3-d]pyrimidin-3 (2H)-yl)-N-isopropyl-2-methylpropanamide] | AA (≥85% control of cucumber powdery mildew) | 50 µg/mL (≈ 79.5 µM) | B (from 50 to 69% control of wheat fusarium head blight) | 0.4 µg/mL (≈ 0.636 µM) | ≥ 0.4 µg/mL | 0.08 µg/mL (≈ 0.127 µM) | B (from 50 to 69% control of wheat septoria leaf blotch) | 0.4 µg/mL (≈ 0.636 µM) | ≥ 2 µg/mL | A (from 70% to 84% control of Asian soybean rust) | 0.4 µg/mL (≈ 0.636 µM) | AA (≥85% control of wheat leaf rust) | 0.08 µg/mL (≈ 0.127 µM) | AA (≥85% control of barley powdery mildew) |  |  |  |
| COCCCO[C@@H](Cn1c(=O)n(C(C)(C)C(=O)NC(C)C)c(=O)c2c(C)c(-n3nccn3)sc21)c1cc(F)ccc1OC [Compound I-084, (R)-2-(1-(2-(5-fluoro-2-methoxyphenyl)-2-(3-methoxypropoxy)ethyl)-5-methyl-2,4-dioxo-6-(2H-1,2,3-triazol-2-yl)-1,4-dihydrothieno[2,3-d]pyrimidin-3 (2H)-yl)-N-isopropyl-2-methylpropanamide] |  | > 50 µg/mL |  | 0.08 µg/mL (≈ 0.13 µM) | 0.08 µg/mL (≈ 0.13 µM) | 0.4 µg/mL (≈ 0.649 µM) | AA (≥85% control of wheat septoria leaf blotch) | 0.4 µg/mL (≈ 0.649 µM) | ≥ 10 µg/mL |  | 0.4 µg/mL (≈ 0.649 µM) | A (from 70% to 84% control of wheat leaf rust) | 0.08 µg/mL (≈ 0.13 µM) | AA (≥85% control of barley powdery mildew) |  |  |  |
| CCOC(=O)c1sc2c(c1C)c(=O)n([C@H](C)C(=O)NC(C)C)c(=O)n2C[C@H](OCCC#N)c1cc(F)ccc1OC [Compound I-220, (R)-ethyl-1-(2-(2-cyanoethoxy)-2-(5-fluoro-2-methoxyphenyl)ethyl)-3-((R)-1-(isopropylamino)-1-oxopropan-2-yl)-5-methyl-2,4-dioxo-1,2,3,4-tetrahydrothieno[2,3-d]pyrimidine-6-carboxylate] | AA (≥85% control of cucumber powdery mildew) |  | C (from 25 to 49% control of wheat fusarium head blight) |  |  |  | B (from 50 to 69% control of wheat septoria leaf blotch) |  |  | B (from 50 to 69% control of Asian soybean rust) |  | C (from 25 to 49% control of wheat leaf rust) |  | AA (≥85% control of barley powdery mildew) | > 50 µg/mL | 0.08 µg/mL (≈ 0.136 µM) | IC90 ([2]; ≥90% growth inhibition, 48 hours, vs 2% DMSO control, read-out: Compound Concentration (ppm) sufficient for ≥90% inhibition of Fv): 0.4 µg/mL (≈ 0.68 µM); Compound Concentration (ppm) sufficient for ≥90% inhibition of Rs (Rhizoctonia solani (Rs); ≥90% growth inhibition, 48 hours, vs 2% DMSO control): 0.08 ppm |
| COCCO[C@@H](Cn1c(=O)n([C@H](C)C(=O)NC(C)C)c(=O)c2c(C)c(-n3cccn3)sc21)c1cc(F)ccc1OC [Compound I-310, (R)-2-(1-((R)-2-(5-fluoro-2-methoxyphenyl)-2-(2-methoxyethoxy)ethyl)-5-methyl-2,4-dioxo-6-(1H-pyrazol-1-yl)-1,4-dihydrothieno[2,3-d]pyrimidin-3 (2H)-yl)-N-isopropylpropanamide] | AA (≥85% control of cucumber powdery mildew) |  | C (from 25 to 49% control of wheat fusarium head blight) |  |  |  | B (from 50 to 69% control of wheat septoria leaf blotch) |  |  | C (from 25 to 49% control of Asian soybean rust) |  | C (from 25 to 49% control of wheat leaf rust) |  | AA (≥85% control of barley powdery mildew) | > 50 µg/mL | 0.08 µg/mL (≈ 0.136 µM) | IC90 ([1]; ≥90% growth inhibition, 48 hours, vs 2% DMSO control, read-out: Compound Concentration (ppm) sufficient for ≥90% inhibition of Pc): > 50 µg/mL; IC90 (Diplodia maydis (Dm); ≥90% growth inhibition, 48 hours, vs 2% DMSO control, read-out: Compound Concentration (ppm) sufficient for ≥90% inhibition of Dm): ≥ 2 µg/mL; IC90 (Rhizoctonia solani (Rs); ≥90% growth inhibition, 48 hours, vs 2% DMSO control, read-out: Compound Concentration (ppm) sufficient for ≥90% inhibition of Rs): 0.08 µg/mL (≈ 0.136 µM); IC90 (Botrtyis cinerea (Bc); ≥90% growth inhibition, 48 hours, vs 2% DMSO control, read-out: Compound Concentration (ppm) sufficient for ≥90% inhibition of Bc): 2 µg/mL (≈ 3.4 µM); IC90 ([4]; ≥90% growth inhibition, 48 hours, vs 2% DMSO control, read-out: Compound Concentration (ppm) sufficient for ≥90% inhibition of Cg): 2 µg/mL (≈ 3.4 µM) |
